Values quoted from earlier work, collected in US6586473B1, “Topical drug delivery composition and method” (Medicis Pharmaceutical Corporation, priority 1989, dated 2003).

System: photoaged skin

CC1=C(/C=C/C(C)=C/C=C/C(C)=C/C(=O)O)C(C)(C)CCC1 [tretinoin, all trans-retinoic acid]
effects of photoaging (wrinkling, sallowness, roughness, mottled pigmentation) (0.1% cream daily for sixteen weeks): can improve the effects of photoaging
dermatitis as a result of treatment (0.1% tretinoin cream, topical): most patients experience dermatitis
duration of initial dermatitis (xerosis, peeling, subjective irritation) (0.1% tretinoin cream, topical): two weeks to three months
